According to patent publication US12339285B2, “Method for estimating therapeutic efficacy” (Konica Minolta, Inc., priority 2017, dated 2025):
Like-named read-outs stand apart in the source and are kept apart here.

System: tumor tissue of lung cancer patients transplanted in SCID mice
Description: Further, tumor tissue was collected from each of the patients at the same time when drug administration was started, and a 2 mm-square piece of the tumor tissue was transplanted under the skin of SCID (Severe Combined ImminoDeficiency) mice (5 mice transplanted with tumor tissue derived from each patient were produced, and a total of 20 mice were produced). […] After 1 day and 100 days from the administration, tumor tissue was collected from the mice, and sample slides were prepared in the same manner as in Preparation for evaluation-1.

With `COc1cc2ncnc(Nc3ccc(F)c(Cl)c3)c2cc1OCCCN1CCOCC1` [Gefitinib] the “resistance in PDX mice” value (PDX mice of the patient B or D (so in the source), judged from tumor volume) was “resistance was not developed”, the volume of tumor (PDX mice transplanted with tumor tissue of patient F or H (drug resistant on day 100)) was “once reduced on day 100 after drug administration, but was increased thereafter” and the “resistance to Gefitinib in PDX mice” value (PDX mice transplanted with tumor tissue of patient F or H, judged from tumor volume) was “resistance to Gefitinib was developed”. The volume of tumor (PDX mice transplanted with tumor tissue of the patient B or D (so in the source) with no drug resistance on day 100) was “gradually reduced”.
